Results published in paper PMC7195332 (Bioorganic & Medicinal Chemistry Letters, 2019).

Experiments:
[1] = biological target: CypD (30-207 aa, human recombinant) (Homo sapiens, UniProt P30405); experiment: Cyclophilin D biochemical FP assay; assay type: binding; conditions: for Biochemical CypD FP assay LE: ligand binding efficiency based on biochemical FP IC50s
[2] = biological target: Recombinant human Cyclophilin D protein (amino acids 44-207, K175I) (Homo sapiens, UniProt P30405, K175I); experiment: CypD SPR binding assay; conditions: for SPR binding CypD LE: ligand binding efficiency based on SPR KDs; for CypD LE (ligand binding efficiency based on the SPR KDs): fragment hits
Chain of Recombinant human Cyclophilin D protein (amino acids 44-207, K175I) (P30405 44-207 K175I): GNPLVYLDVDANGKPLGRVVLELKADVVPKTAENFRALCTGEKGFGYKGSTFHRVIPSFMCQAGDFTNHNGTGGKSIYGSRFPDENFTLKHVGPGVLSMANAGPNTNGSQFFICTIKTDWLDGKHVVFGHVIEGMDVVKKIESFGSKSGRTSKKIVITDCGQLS

Chain of CypD (30-207 aa, human recombinant) (P30405 30-207): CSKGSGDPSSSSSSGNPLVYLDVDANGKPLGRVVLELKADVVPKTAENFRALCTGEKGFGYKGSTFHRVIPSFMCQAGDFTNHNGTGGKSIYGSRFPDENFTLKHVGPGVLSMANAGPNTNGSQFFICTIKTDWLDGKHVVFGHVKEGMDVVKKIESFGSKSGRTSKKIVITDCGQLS

SMILES	SPR binding CypD LE [2]	IC50 [1] [µM]	further results
O=C(NCc1ccc2c(c1)[C@@H]1C[C@H](N2)[C@H](O)CO1)C(=O)N1CCCC1 [compound 30]	0.19		Biochemical CypD FP assay LE [1]: 0.16
CSc1ccccc1[C@H]1CCCN1C(=O)CNC(=O)CCc1ccc2c(c1)[C@@H]1C[C@H](N2)[C@H](O)CO1 [compound 19]		54	
CCN1Cc2cc(CNC(=O)NCC(=O)N3CCC[C@@H]3c3ccccc3SC)ccc2NCCC1=O [compound 20]	0.25	0.19	
CSc1ccccc1[C@H]1CCCN1C(=O)CN(C)C(=O)NCc1ccc2c(c1)[C@H]1C[C@@H](N2)[C@H](O)CO1 [compound 18]		10	
O[C@@H]1CO[C@@H]2C[C@H]1Nc1ccc(F)cc12 [compound 3]			CypD LE (ligand binding efficiency based on the SPR KDs) [2]: 0.2
CCN1Cc2cc3c(cc2NCCC1=O)OCO3 [compound 4]			CypD LE (ligand binding efficiency based on the SPR KDs) [2]: 0.16
CCN1Cc2cc(NC(=O)CN3C(=O)C4C(C3=O)[C@H]3CC[C@@H]4C3)ccc2NCCC1=O (stereo partly drawn) [compound 35]		> 1000	
CSc1ccccc1[C@H]1CCCN1C(=O)C(=O)NCc1ccc2c(c1)[C@H]1C[C@@H](N2)[C@H](O)CO1 [compound 31]	0.16	> 100	
O=C(NCc1ccc2c(c1)[C@@H]1C[C@H](N2)[C@H](O)CO1)C(=O)NC1CCCC1 [compound 30]		870	Kd [2]: 217 µM
O=C(CN1C(=O)[C@@H]2[C@@H]3CC[C@@H](C3)[C@@H]2C1=O)NCc1ccc2c(c1)[C@H]1C[C@@H](N2)[C@H](O)CO1 [compound 39]	0.26	1.7	Biochemical CypD FP assay LE [1]: 0.26
O=C(CN1C(=O)C2C3CCC(C3)C2C1=O)NCc1ccc2c(c1)CCCN2 (stereo not drawn) [compound 38]			potency improvement compared with 36 [1]: 2 fold
CCN1Cc2cc(CNC(=O)CN3C(=O)[C@@H]4[C@H]5CC[C@H](C5)[C@@H]4C3=O)ccc2NCCC1=O [compound 34]		80	Biochemical CypD FP assay LE [1]: 0.18; Kd [2]: 51 µM
Nc1ccc(CCNC(=O)CN2C(=O)C3C4CCC(C4)C3C2=O)cc1 (stereo not drawn) [compound 37]		490	Biochemical CypD FP assay LE [1]: 0.18
O=C(NCc1ccccn1)C(=O)NC1CCCC1 [compound 8]			CypD LE (ligand binding efficiency based on the SPR KDs) [2]: 0.22
CSc1ccccc1[C@H]1CCCN1C(=O)CNC(=O)NCc1ccc(N)cc1 [compound 2, reference compound]		0.75	Kd [2]: 0.23 µM
CCN1Cc2cc(NC(=O)NCC(=O)N3CCC[C@@H]3c3ccccc3SC)ccc2NCCC1=O [compound 21]	0.13	> 100	
CSc1ccccc1[C@@H]1CCCN1C(=O)C(=O)NCc1ccc2c(c1)[C@H]1C[C@@H](N2)[C@H](O)CO1 [compound 32]		> 30	
CCN1Cc2cc(CCC(=O)NCC(=O)N3CCC[C@@H]3c3ccccc3SC)ccc2NCCC1=O [compound 22]	0.21	4.1	Biochemical CypD FP assay LE [1]: 0.21
CCn1nnc(NC(=O)c2ccccc2)n1 [compound 6]			CypD LE (ligand binding efficiency based on the SPR KDs) [2]: 0.21
CCN1Cc2cc(CCC(=O)NCCC(=O)N3CCC[C@@H]3c3ccccc3SC)ccc2NCCC1=O [compound 23]	0.12	> 100	
O=C(NCc1ccc2c(c1)[C@H]1C[C@@H](N2)[C@H](O)CO1)C(=O)N1CCCC1 [compound 29]		> 100	Kd [2]: > 1500 µM
O=C(CN1C(=O)[C@@H]2[C@H]3CC[C@H](C3)[C@@H]2C1=O)NCc1ccc2c(c1)[C@H]1C[C@@H](N2)[C@H](O)CO1 [compound 40, 2-(exo-3,5-Dioxo-4-aza-tricyclo[5.2.1.02,6]dec-4-yl)-N-((1R,9R,10S)-10-hydroxy-12-oxa-8-aza-tricyclo[7.3.1.02,7]trideca-2(7),3,5-trien-4-ylmethyl)-acetamide]	0.25	0.735	Biochemical CypD FP assay LE [1]: 0.27
